Assays:
[1] = tested on: Ba/F3 cells expressing OCLN-RASGRF1; assay: Cell viability (Cell Titer-Glo), Ba/F3 cells expressing OCLN-RASGRF1; assay type: cell-based
Protocol: Ba F3 Transformation Assays. Ba/F3 cells were maintained in RPMI 1640 (Gibco) with heat-inactivated 10% fetal bovine serum (Gibco) and penicillin (100 units/mL)/streptomycin (100 μg/mL; Gibco) and 1 ng/mL interleukin-3 (IL-3; Gibco). cDNAs (GFP or OCLN-RASGRF1) in pLX307 were introduced into Ba/F3 cells via lentiviral transduction with 8 μg/mL polybrene and centrifugation at 2250 rpm at 37 degrees C. for 30 minutes. 24 hours later, transduced cells were selected with 1 μg/mL puromycin for at least 5 days.
(§1) Cell Viability Assays and RASGRF1 knockdown. Ba/F3 cells or PaCaDD137 cells were seeded in 96-well microtiter plates. Drug or drug vehicle was added on the same day (for Ba/F3 cells) or 24 hours after seeding (for PaCaDD137 cells). Following 4-5 days of drug exposure, cell viability was determined using the Cell Titer-Glo luminescent assay (Promega) according to the manufacturer's instructions. Luminescence was measured with a Spectramax M3 plate reader (Molecular Devices). Data analysis was performed using GraphPad Prism software.

PaCaDD137 cells = assay: Cell viability (Cell Titer-Glo), PaCaDD137 cells; assay type: cell-based
Protocol: as §1, with “Following 4-5 days of drug exposure, cell viability was determined using the Cell Titer-Glo luminescent assay (Promega) according to the manufacturer's instructions.” left out

SMILES	activity of addition of pictilisib to trametinib compared to trametinib alone ([1]; 100 or 500 nM pictilisib, 4 days)	sensitivity (cell viability) ([1]; 4 days, Cell Titer-Glo)	activity of addition of pictilisib to trametinib compared to trametinib alone (PaCaDD137 cells; 100 or 500 nM pictilisib, 6 days)	sensitivity (cell viability) (PaCaDD137 cells; Cell Titer-Glo)	IC50 ([1]; Mus musculus, BaF3, 96 h, 4 days exposure, Cell Titer-Glo, read-out: half maximal inhibitory concentration (IC50), cell viability) [µM]	IC50 (PaCaDD137 cells; 120 h, 5 days, Cell Titer-Glo) [µM]
CS(=O)(=O)N1CCN(Cc2cc3nc(-c4cccc5[nH]ncc45)nc(N4CCOCC4)c3s2)CC1 [pictilisib]	only a modest increase in activity	only a modest increase in sensitivity	only a modest increase in activity	not		
CC(=O)Nc1cccc(-n2c(=O)n(C3CC3)c(=O)c3c(Nc4ccc(I)cc4F)n(C)c(=O)c(C)c32)c1 [trametinib]					~0.00015	~0.02
